Data: US9120779B2, “Inhibitors of HCV NS5A” (PRESIDIO PHARMACEUTICALS, INC., priority 2008, dated 2015)

These compounds were tested on HCV genotype 1b replicon in Huh 7 cells (assay: HCV replicon assay (luciferase readout, 1b_Huh-Luc/Neo-ET cell line)). Details: Hepatitis C virus, Huh-7, 72 h, read-out: Inhibition of HCV genotype 1b, Table 1, 72 h incubation.
Type: cell-based
Method: Biological activity of the compounds of the invention was determined using an HCV replicon assay. The 1b_Huh-Luc/Neo-ET cell line persistently expressing a bicistronic genotype 1b replicon in Huh 7 cells was obtained from R^eBLikon GMBH. This cell line was used to test compound inhibition using luciferase enzyme activity readout as a measurement of compound inhibition of replicon levels.
On Day 1 (the day after plating), each compound is added in triplicate to the cells. Plates incubated for 72 h prior to running the luciferase assay. Enzyme activity was measured using a Bright-Glo Kit (cat. number E2620) manufactured by Promega Corporation. The following equation was used to generate a percent control value for each compound. % Control=(Average Compound Value/Average Control)*100
The EC50 value was determined using GraphPad Prism and the following equation: Y=Bottom+(Top−Bottom)/(1+10^((Log IC50−X)*HillSlope))
EC50 values of compounds are repeated several times in the replicon assay.
Example compounds of the disclosed invention are illustrated in Tables 1-9 attached as appendices. The tables show inhibitory activity of many of the example compounds with respect to HCV 1b. […] The tables further provide mass spectrometry results for the synthesized example compounds.

Row | Compound | EC50 [nM]
1 | CC(C)[C@H](NC(=O)N1CCOCC1)C(=O)N1CCC[C@H]1c1ncc(-c2ccc([C@H]3CC[C@H](c4cnc([C@@H]5CCCN5C(=O)[C@@H](NC(=O)N5CCOCC5)C(C)C)[nH]4)CC3)cc2)[nH]1 [compound 385] | 10 to 999
2 | CC(C)[C@H](NC(=O)N1CCOCC1)C(=O)N1CCC[C@H]1c1ncc(-c2ccc([C@H]3CC[C@@H](c4cnc([C@@H]5CCCN5C(=O)[C@@H](NC(=O)N5CCOCC5)C(C)C)[nH]4)CC3)cc2)[nH]1 [compound 386] | 10 to 999
3 | COC(=O)N[C@@H](C)C(=O)N1CCC[C@H]1c1ncc(-c2ccc([C@H]3CC[C@H](c4cnc([C@@H]5CCCN5C(=O)[C@H](C)NC(=O)OC)[nH]4)CC3)cc2)[nH]1 [compound 387] | < 1
4 | COC(=O)N[C@H](C(=O)N1CCC[C@H]1c1ncc(-c2ccc([C@H]3CC[C@H](c4cnc([C@@H]5CCCN5C(=O)[C@@H](NC(=O)OC)[C@@H](C)OC)[nH]4)CC3)cc2)[nH]1)[C@@H](C)OC [compound 388] | < 1

Same assay, conditions: Hepatitis C virus, Huh-7, 72 h, read-out: Inhibition of HCV genotype 1b, Table 2, 72 h incubation

Row | Compound | EC50 [nM]
5 | CC(C)(C)OC(=O)N[C@@H](C(=O)N1CCC[C@H]1c1ncc(-c2ccc(-c3ccc4nc([C@@H]5CCCN5C(=O)[C@H](NC(=O)OC(C)(C)C)c5ccccc5)[nH]c4c3)cc2)[nH]1)c1ccccc1 [compound 400] | < 1
6 | COC(=O)N[C@@H](C(=O)N1CCC[C@H]1c1ncc(-c2ccc(-c3ccc4nc([C@@H]5CCCN5C(=O)[C@H](NC(=O)OC)c5ccccc5)[nH]c4c3)cc2)[nH]1)c1ccccc1 [compound 401] | < 1
7 | COC(=O)N[C@H](C(=O)N1CCC[C@H]1c1ncc(-c2ccc(-c3ccc4nc([C@@H]5CCCN5C(=O)[C@@H](NC(=O)OC)[C@@H](C)OC)[nH]c4c3)cc2)[nH]1)[C@@H](C)OC [compound 402] | < 1
8 | COC(=O)N[C@H](C(=O)N1CCC[C@H]1c1ncc(-c2ccc(-c3ccc4nc([C@@H]5CCCN5C(=O)[C@@H](NC(=O)OC)C(C)C)[nH]c4c3)cc2)[nH]1)C(C)C [compound 403] | < 1
9 | COC(=O)N[C@@H](C(=O)N1CCC[C@H]1c1ncc(-c2ccc(-c3ccc4nc([C@@H]5CCCN5C(=O)[C@H](NC(=O)OC)C(C)C)[nH]c4c3)cc2)[nH]1)C(C)C [compound 404] | 1 to 9.9

Same assay, conditions: Hepatitis C virus, Huh-7, 72 h, read-out: Inhibition of HCV genotype 1b, Table 3, 72 h incubation

Row | Compound | EC50 [nM]
10 | CC(C)(C)OC(=O)N[C@@H](C(=O)N1CCC[C@H]1c1ncc(-c2ccc(N3CCC(c4cnc([C@@H]5CCCN5C(=O)[C@H](NC(=O)OC(C)(C)C)c5ccccc5)[nH]4)CC3)c(F)c2)[nH]1)c1ccccc1 [compound 450] | < 1
11 | O=C(N[C@@H](C(=O)N1CCC[C@H]1c1ncc(-c2ccc(N3CCC(c4cnc([C@@H]5CCCN5C(=O)[C@H](NC(=O)C5CC5)c5ccccc5)[nH]4)CC3)c(F)c2)[nH]1)c1ccccc1)C1CC1 [compound 451] | < 1
12 | COC(=O)N[C@@H](C(=O)N1CCC[C@H]1c1ncc(-c2ccc(N3CCC(c4cnc([C@@H]5CCCN5C(=O)[C@H](NC(=O)OC)c5ccccc5)[nH]4)CC3)c(F)c2)[nH]1)c1ccccc1 [compound 452] | < 1
13 | CC(C)(C)OC(=O)N[C@@H](C(=O)N1CCC[C@H]1C(=O)NC1CCN(c2ccc(-c3cnc([C@@H]4CCCN4C(=O)[C@H](NC(=O)OC(C)(C)C)c4ccccc4)[nH]3)cc2F)CC1)c1ccccc1 [compound 453] | < 1
14 | COC(=O)N[C@@H](C(=O)N1CCC[C@H]1C(=O)NC1CCN(c2ccc(-c3cnc([C@@H]4CCCN4C(=O)[C@H](NC(=O)OC)c4ccccc4)[nH]3)cc2F)CC1)c1ccccc1 [compound 454] | < 1
15 | O=C(NC1CCN(c2ccc(-c3cnc([C@@H]4CCCN4C(=O)[C@H](NC(=O)N4CCOCC4)c4ccccc4)[nH]3)cc2F)CC1)[C@@H]1CCCN1C(=O)[C@H](NC(=O)N1CCOCC1)c1ccccc1 [compound 455] | 1 to 9.9
16 | O=C(N[C@@H](C(=O)N1CCC[C@H]1C(=O)NC1CCN(c2ccc(-c3cnc([C@@H]4CCCN4C(=O)[C@H](NC(=O)C4CC4)c4ccccc4)[nH]3)cc2F)CC1)c1ccccc1)C1CC1 [compound 456] | < 1
17 | CN(C)C(=O)N[C@@H](C(=O)N1CCC[C@H]1C(=O)NC1CCN(c2ccc(-c3cnc([C@@H]4CCCN4C(=O)[C@H](NC(=O)N(C)C)c4ccccc4)[nH]3)cc2F)CC1)c1ccccc1 [compound 457] | < 1
18 | COC(=O)N[C@@H](C(=O)N1CCC[C@H]1c1ncc(-c2cc(F)c(N3CCC(c4cnc([C@@H]5CCCN5C(=O)[C@@H](c5ccccc5)N(C)C)[nH]4)CC3)c(F)c2)[nH]1)c1ccccc1 [compound 458] | < 1
19 | COC(=O)N[C@@H](C(=O)N1CCC[C@H]1c1ncc(-c2cc(F)c(N3CCC(c4cnc([C@@H]5CCCN5C(=O)[C@H](NC(=O)OC)c5ccccc5)[nH]4)CC3)c(F)c2)[nH]1)c1ccccc1 [compound 459] | < 1
20 | COC(=O)N[C@@H](C(=O)N1CCC[C@H]1c1ncc(-c2cc(F)c(N3CCC(c4cnc([C@@H]5CCCN5C(=O)[C@H](NC(=O)OC(C)(C)C)c5ccccc5)[nH]4)CC3)c(F)c2)[nH]1)c1ccccc1 [compound 460] | < 1
21 | COC(=O)N[C@@H](C(=O)N1CCC[C@H]1c1ncc(-c2cc(F)c(N3CCC(c4cnc([C@@H]5CCCN5C(=O)[C@H](NC(=O)C5CC5)c5ccccc5)[nH]4)CC3)c(F)c2)[nH]1)c1ccccc1 [compound 461] | < 1
22 | COC(=O)N[C@@H](C(=O)N1CCC[C@H]1c1ncc(-c2cc(F)c(N3CCC(c4cnc([C@@H]5CCCN5C(=O)[C@H](NC(=O)N5CCN(C)CC5)c5ccccc5)[nH]4)CC3)c(F)c2)[nH]1)c1ccccc1 [compound 462] | < 1
23 | COC(=O)N[C@H](C(=O)N1CCC[C@H]1c1ncc(C2CCN(c3c(F)cc(-c4cnc([C@@H]5CCCN5C(=O)[C@H](NC(=O)OC)c5ccccc5)[nH]4)cc3F)CC2)[nH]1)[C@@H](C)OC [compound 466] | < 1
24 | CCN(CC)[C@@H](C(=O)N1CCC[C@H]1c1ncc(C2CCN(c3c(F)cc(-c4cnc([C@@H]5CCCN5C(=O)[C@H](NC(=O)OC)c5ccccc5)[nH]4)cc3F)CC2)[nH]1)c1ccccc1 [compound 467] | < 1
25 | COC(=O)N[C@@H](C(=O)N1CCC[C@H]1c1ncc(-c2cc(F)c(N3CCC(c4cnc([C@@H]5CCCN5C(=O)[C@@H](c5ccccc5)N5CCOCC5)[nH]4)CC3)c(F)c2)[nH]1)c1ccccc1 [compound 468] | < 1
26 | COC(=O)N[C@@H](C(=O)N1CCC[C@H]1c1ncc(-c2cc(F)c(N3CCC(c4cnc([C@@H]5CCCN5C(=O)[C@@H](c5ccccc5)N5CCCCC5)[nH]4)CC3)c(F)c2)[nH]1)c1ccccc1 [compound 469] | < 1
27 | COC(=O)N[C@@H](C(=O)N1CCC[C@H]1c1ncc(-c2cc(F)c(N3CCC(c4cnc([C@@H]5CCCN5C(=O)[C@H](NC(=O)N5CCOCC5)c5ccccc5)[nH]4)CC3)c(F)c2)[nH]1)c1ccccc1 [compound 471] | 1 to 9.9
28 | COC(=O)N[C@@H](C(=O)N1CCC[C@H]1c1ncc(-c2cc(F)c(N3CCC(c4cnc([C@@H]5CCCN5C(=O)[C@H](NC(=O)[C@@H]5CCCN5C)c5ccccc5)[nH]4)CC3)c(F)c2)[nH]1)c1ccccc1 [compound 472] | < 1
29 | COC(=O)N[C@@H](C(=O)N1CCC[C@H]1c1ncc(-c2cc(F)c(N3CCC(c4cnc([C@@H]5CCCN5C(=O)[C@H](NS(C)(=O)=O)c5ccccc5)[nH]4)CC3)c(F)c2)[nH]1)c1ccccc1 [compound 474] | < 1
30 | COC(=O)N[C@@H](C(=O)N1CCC[C@H]1c1ncc(-c2cc(F)c(N3CCC(c4cnc([C@@H]5CCCN5C(=O)[C@@H](c5ccccc5)N5CCCC5)[nH]4)CC3)c(F)c2)[nH]1)c1ccccc1 [compound 475] | < 1
31 | CCOC(=O)N[C@@H](C(=O)N1CCC[C@H]1c1ncc(C2CCN(c3c(F)cc(-c4cnc([C@@H]5CCCN5C(=O)[C@H](NC(=O)OC)c5ccccc5)[nH]4)cc3F)CC2)[nH]1)c1ccccc1 [compound 476] | < 1
32 | COC(=O)N[C@@H](C(=O)N1CCC[C@H]1c1ncc(-c2cc(F)c(N3CCC(c4cnc([C@@H]5CCCN5C(=O)[C@H](NS(=O)(=O)C5CC5)c5ccccc5)[nH]4)CC3)c(F)c2)[nH]1)c1ccccc1 [compound 477] | < 1
33 | COC(=O)N[C@@H](C(=O)N1CCC[C@H]1c1ncc(C2CCN(c3c(F)cc(-c4cnc([C@@H]5CCCN5C(=O)[C@H](NC(=O)OC(C)(C)C)c5ccccc5)[nH]4)cc3F)CC2)[nH]1)c1ccccc1 [compound 479] | < 1
34 | COC(=O)N[C@@H](C(=O)N1CCC[C@H]1c1ncc(C2CCN(c3c(F)cc(-c4cnc([C@@H]5CCCN5C(=O)[C@H](NC(=O)C5CC5)c5ccccc5)[nH]4)cc3F)CC2)[nH]1)c1ccccc1 [compound 480] | < 1
35 | COC(=O)N[C@@H](C(=O)N1CCC[C@H]1c1ncc(C2CCN(c3c(F)cc(-c4cnc([C@@H]5CCCN5C(=O)[C@H](NC(=O)N5CCOCC5)c5ccccc5)[nH]4)cc3F)CC2)[nH]1)c1ccccc1 [compound 481] | < 1
36 | CC(C)(C)OC(=O)N[C@@H](C(=O)N1CCC[C@H]1c1ncc(-c2cc(F)c(N3CCC(c4cnc([C@@H]5CCCN5C(=O)[C@H](NC(=O)OC(C)(C)C)c5ccccc5)[nH]4)CC3)c(F)c2)[nH]1)c1ccccc1 [compound 482] | < 1

Same assay, conditions: read-out: Inhibition of HCV genotype 1b, Table 3, 72 h incubation

Row | Compound | EC50 [nM]
37 | COC(=O)N[C@@H](C(=O)N1CCC[C@H]1c1ncc(-c2cc(F)c(N3CCC(c4cnc([C@@H]5CCCN5C(=O)[C@H](NC(=O)N5CCOCC5)c5ccccc5)[nH]4)CC3)c(F)c2)[nH]1)c1ccccc1 [compound 473] | < 1
